For assay [1], the system named is AMP-dependent protein kinase (AMPK). As to conditions: disclosed in U.S. patent application Ser. No. 14/492,547; cited from earlier work.
The test system of assay [2] is wounds of STZ induced diabetic rats. Briefly: Excisional full-thickness skin wound healing in STZ induced diabetic rats (recovery rate). The assay is classed as in vivo, Wistar rats. As to the method:
Salsolinol ointments at 0.01 mg/g, 0.03 mg/g, 0.1 mg/g, and 0.3 mg/g were prepared respectively by dissolving 0.5 mg, 1.5 mg, 5 mg, and 15 mg of salsoinol in 2.5 mL of glycerol (Sigma Inc., MO, USA) plus 1.0 mL of Creagel emulsifier (First Chemical, TPE, Taiwan) and 45.5 mL of distilled water. Vehicle was composed of glycerol (2.5 mL), Creagel emulsifier (1.0 mL), and distilled water (45.5 mL).
Swivazin®-HN cream was used as positive control for treating the wounds of STZ induced diabetic rats, which contained asiaticoside (4 mg/g), isolated from Centella asiatica. […]. Ethnopharmacology 65 (1999): 1-11].
Adult male Wistar rats were used at four weeks of age, purchased from BioLASCO Taiwan, and were acclimatized in a room with 12-12 h light (7:00 A.M. to 7:00 P.M.)-dark (7:00 P.M. to 7:00 A.M.) cycle, a temperature of 23±1° C., and a humidity of 65±5%.
Each rat had free access to both water and standard rodent soft chow ad libitum. STZ was injected intraperitoneally at a dose of 65 mg/Kg body weight.
All experimental procedures were approved by and performed in compliance with the guidelines of the Institutional Animal Care and Use Committee (IACUC). All surgeries were conducted while animals were under continuous anesthesia with 4% isoflurane.
The dorsal skin was shaved and then disinfected with 10% povidone-iodine before an excisional full-thickness square-shaped skin wound (1.5×1.5 cm) was induced using a sterile wound maker. Animal was then housed alone in its cage to avoid any further wound damage.
. The groups were administered at the same amount once daily and the wounds were photopictured on Day 1, Day 3, Day 5, Day 7, Day 10, and Day 15 and the sizes of the wounds were analyzed using Visual Basic 6.0. Wound closure at experimental time points was calculated as percentage of initial wound area, called as “recovery rate.”

Results on two compounds are retold here after patent US9655891B1, “Use of isoquinoline derivatives for diabetic wound healing” (ZIH YUAN TANG Biotechnology Co., Ltd, priority 2016, dated 2017).

With `COc1ccc(C[C@H]2c3cc(O)c(OC)cc3CCN2C)cc1O` [reticuline, reference compound], the “activation of AMPK” value in assay [1] was “can activate AMP-dependent protein kinase (AMPK)”.
In the case of `CC1NCCc2cc(O)c(O)cc21` (stereo not shown) [salsolinol], the “activation of AMPK” value in assay [1] is recorded as “can activate AMP-dependent protein kinase (AMPK)”. The “recovery rate (in words)” value in assay [2] (FIG. 2, salsolinol 0.01 mg/g, Day 7-15) is on record as “relatively improved recovery rate”. Moreover, the “wound closure and healing” value in assay [2] (FIG. 2, salsolinol at all the concentrations (0.01, 0.03, 0.1, 0.3 mg/g)) was “could enhance the wound closure and healing”. The “recovery rate (wound closure as percentage of initial wound area)” value in assay [2] (FIG. 2, salsolinol ointment 0.01 mg/g once daily, topical, Day 15) is reported as “over 97%”. The “difference in recovery between D+Salsolinol and Swivazin (DP, positive control)” value in assay [2] (FIG. 3) is “no obvious difference”. Also, the “recovery rate compared with groups without treatment (DC) or vehicle (DV)” value in assay [2] (FIG. 3, D+Salsolinol) was “significantly increased recovery rate”.
